{"source": "patent US20130239239A1", "about": "“LMCD1 CANCER MARKERS AND METHODS FOR THEIR USE” (Academia Sinica, priority 2012, published 2013)", "key": {"[1]": {"system": "LMCD1 transfectants in SK-Hep1 cells", "assay": "Lamellipodia formation (Arp3 staining, cell morphology) in LMCD1 transfectants", "type": "cell-based, human", "conditions": "LMCD1-E135K and LMCD1-K237R cells", "text": "Coverslips were mounted on slides using […] mounting medium with DAPI (Vector Laboratories)."}, "[2]": {"system": "LMCD1 transfectants in SK-Hep1 cells", "assay": "Wound healing assay in LMCD1 stable transfectants of SK-Hep1 cells", "conditions": "dose dependent", "quoted_text": "To test the hypothesis that LMCD1 mutants play a role in cell migration regulation, three different cell migration assays for reflecting alteration of directed migration, random migration, and chemotaxis were performed. Directed migration of these SK-Hep1 transfectants was inspected by wound healing assay. For the wound healing assay, cells were seeded in a 6-well plate at a confluent density and cultured overnight to grow into a monolayer. The culture was scratched with a p200 pipette tip, and the wound was allowed to close for 20 hours. The average reduction of distance between two wound edges was calculated to evaluate the rate of wound closure. […] Cells were photographed immediately after wounding (FIG. 7a upper) and 2 hours after wounding (FIG. 7a lower), with arrows indicating protrusion of cells at the wound edge. […] Images were obtained using an Olympus BX51 fluorescence microscope or a PerkinElmer Ultra View confocal microscope (PerkinElmer Life Sciences).\nThe bar graph to the right of the images in FIG. 4c provides quantification of average migration results, normalized to the mock cells (±SEM)."}, "[3]": {"system": "LMCD1-K237R", "assay": "LMCD1-K237R expression in PLC/PRF/5 cells by reverse-transcription PCR", "type": "cell-based, human", "conditions": "10 nM 17β-estradiol", "protocol": "Five independent pLKO.1 lentiviral-based shRNA clones targeting human LMCD1 (NM_014583) from The RNAi Consortium (TRC) library were tested. […] Human shRNA for RAC1 (shRac1) was also obtained from TRC library with number TRCN0000004870: 5′-[…]-3′. pLKO.1-shLuc was used as control. To generate shRNA lentiviral particles, HEK293T cells were co-transfected with a plasmid mixture (pLKO.1-puro-shRNA, pCMVΔR8.91 packaging plasmid, and pMD.G envelope plasmid) by calcium phosphate protocol. Cell medium containing viral particles was collected three times at 24-hour intervals after transfection. The virus-containing medium was aliquoted and used to infect cells or stored at −80° C. until use. Ninety-six hours after infection, cells were subjected to further experimental assays or harvested for LMCD1 or Rac1 gene expression analysis by RT-PCR or Western blotting.\n(§1) Trans-well migration assays were performed as in Example 3. Expression of LMCD1-K237R in PLC/PRF/5 cells (1×10^5 cells) was induced by exposure to 10 nM 17β-estradiol. Results are provided in FIG. 4d, with some cells also being treated with the indicated shRNA. Images in FIG. 4d are representative of migration results from three independent experiments, with (+E2) and without (−E2) estradiol treatment. The migration results are quantified by bar graph in FIG. 4e (±SEM). […]"}, "[4]": {"system": "PLC/PRF/5 cells", "assay": "Trans-well migration assay in PLC/PRF/5 cells", "type": "cell-based, human", "conditions": "10 nM 17β-estradiol, 24 hours", "protocol": "For trans-well assay, 1×10^4 cells resuspended in serum-free medium were seeded into the upper chamber of an insert with an 8.0-μm pore size of polycarbonate membrane (BD Biosciences) and then placed into the bottom chamber containing 10% FBS as chemoattractant. Cells were allowed to migrate for 24 hours followed by methanol fixation and Giemsa staining (MERCK Darmstadt, Germany). Un-migrated cells on the membrane apical side were removed. Migrated cells were photographed with a phase contrast microscope and the number was counted by using Image-Pro Plus software. All experiments were performed in triplicates. […] Images in the top panel of FIG. 3e are representative of three independent experiments performed in triplicate. Quantification of average migrated cell number is shown in bar graphs below the images (±SEM).\nas §1"}, "[5]": {"system": "Rac1 interaction with Rac1-specific GEFs TrioN, GEF-H1 and Tiam1", "conditions": "cited from earlier work"}}}
{"compound": "CCN(CC)CCCC(C)Nc1nc(C)cc(Nc2ccc3nc(C)cc(N)c3c2)n1", "note": "(centres unmarked) [NSC23766]", "values": [{"measurement": "lamellipodia extension", "setting": "[1]", "result": "inhibited lamellipodia extension"}, {"measurement": "cell mobility (wound closure)", "setting": "[2]", "result": "decreased"}]}
{"compound": "C[C@]12CC[C@@H]3c4ccc(O)cc4CC[C@H]3[C@@H]1CC[C@@H]2O", "note": "[estrogen, 17β-estradiol]", "values": [{"measurement": "expression of LMCD1-K237R", "setting": "[3]", "result": "up-regulate"}, {"measurement": "cell migration", "setting": "[4]", "result": "up-regulate"}]}
{"compound": "Rac1 Inhibitor W56: peptide comprising residues 45-60 of the guanine nucleotide exchange factor (GEF) recognition/activation site of Rac1 (MVDGKPVNLGLWDTAG; UniProt P63000 45-60, looked up, fragment)", "values": [{"measurement": "inhibition of Rac1 interaction with Rac1-specific GEFs TrioN, GEF-H1 and Tiam1", "setting": "[5]", "result": "selectively inhibits"}]}
